Measurements published in patent US11229626B2, “Synergistic nutritional compositions for treating seizures and chronic inflammatory diseases” (CELAGENEX RESEARCH (INDIA) PVT. LTD., priority 2020, dated 2022).

Tested on: PTZ induced rat model
Assay: PTZ (pentylene-tetrazole) induced convulsions, anti-convulsant activity in Wistar rats
Type: in vivo
Details: male Wistar rats, n=6 per group, 60 mg/kg PTZ intraperitoneally 1 hr after test item; for Straub Tail / Clonic Convulsions / Stupor / Tonic Convulsions: doses per Table 1; for Clonic Convulsions / Stupor / Tonic Convulsions: mean; for Recovery: outcome recovery or death
Protocol: The purpose of this study is to evaluate the effect of anti-convulsant activity of the test compound in Wistar Rats.
The systemic administration of PTZ is one of the most commonly employed methods for anti-convulsant screening. The preference has been given to this model due to its ease of performance, reliability, ease of expressing results and the shorter time-period to produce convulsions.
60 mg/kg of PTZ was injected per body weight, intraperitoneally 1 hr after the test item administration.
All animals were acclimatized for five days and seizures were induced by administering 60 mg/kg PTZ per body weight, 1 hr after test item administration. Normal control group was injected with phosphate buffer solution.
As Group 1 (Vehicle control), Group 2 served as diseased control, Group 3 was Reference standard and Group 4, Group 5 and Group 6 served as test substance. The dose was administered for short term (single day administration) or long term (14 or 21 days) after acclimatization.
The time was recorded for convulsion phase clonic, tonic and stupor after test administration. All values were expressed as MEAN±STD. The significant difference between the treatment and control group was estimated using oneway ANOVA with Dennett's test. All results of the statistical analysis were summarized in separate tables.

SMILES | Straub Tail | Clonic Convulsions | Stupor | Tonic Convulsions | Recovery
C[N+](C)(C)[C@@H](Cc1c[nH]c(=S)[nH]1)C(=O)O [L-Ergothioneine, L-ergothioneine] | Absent | 4.66 s | 70.33 s | 8.00 s | Recovery
CC[C@@H](C(N)=O)N1CCCC1=O [Levetiracetam, reference compound] | Absent | 3.33 s | 56.16 s | 5.83 s | Recovery
CCCCCCCCCC(=O)OCC(COC(=O)CCCCCCCCC)OC(=O)CCCCCCCCC [Tridecanoin] | Absent | 5.00 s | 74.16 s | 7.66 s | Recovery
